Data set [1] has as its system Staphylococcus warneri. Put plainly: Log reduction in populations of Staphylococcus warneri (Example 9). Type of data set: cell-based. As to conditions: S. warneri, 1.5 ppm, average of two. How it is done:
(§1) N-chloro-N,N′-bishydroxymethylurea can be synthesized in the same manner as N-chloro-N,N′-dimethylurea. The bishydroxyurea (1.0 g, 8.33 mmol) was added to methanol (60 mL) in a 250 mL round bottom flask equipped with a magnetic stir bar without cooling. Another aliquot of methanol (20 mL) was added to a small vial. T-butyl hypochlorite (0.75 mL, 6.66 mmol) was diluted in the vial with methanol, and this solution was subsequently added to the urea solution over a period of less than five minutes. The combined solution was stirred for up to another two hours. The solvent was removed in vacuo, resulting in a colorless and transparent oil that solidified upon prolonged standing. The solid was characterized by ^1H NMR which indicated it was 20-30% N-chloro-N,N′-bishydroxymethylurea.

For data set [2], the system named is Pseudomonas aeruginosa. Put plainly: Log reduction in populations of Pseudomonas aeruginosa (Example 9). The data set is classed as cell-based. As to conditions: P. aeruginosa, 0.3 ppm, average of two. The protocol: as §1
Data set [3] is described as follows: Stability in the presence of chlorine demand (0.1× nutrient broth), total chlorine by Hach DPD. Type of data set: physicochemical. As to conditions: 5 ppm chlorine. How it is done: This can be seen in Table 4 below. 20 mL aliquots of a 0.1× nutrient broth were used and the active species added such that the initial concentration of each was equivalent to 5 ppm chlorine as measured by the Hach. To prepare the nutrient broth Difco Nutrient Broth (8 grams) was dissolved in 1 L of deionized water, and subsequently diluted to 0.1× of the initial concentration prior to being autoclaved at 121° C. for 15 minutes. 100 mL solutions of each of the actives were made, and the concentration was measured using standard Hach test procedures on a BetzDearborn DR 2010 Spectrophotometer. At each time point a 1:10 dilution of the solution in DI water was made and placed in the spectrophotometer cell. Hach Permachem DPD Total Chlorine Reagent was added and the cell was placed into the spectrophotometer. The ppm of Cl2 was measured at 0, 1, 3, 6, 24, and 48 hours. A fresh dilution was made at each time point, if necessary, and the bottles of solution were placed in a shaking incubator at 37° C. in between runs. Dimethyl monochlorourea is notated as DMCU. Bis-hydroxymethyl chlorourea is BHMCU.

Assay in data set [4]: as above
As to conditions: 72 h, 5 ppm chlorine. The data set is classed as physicochemical.

Data set [5] relates to Pseudomonas aeruginosa. Put plainly: Viable cell counts of P. aeruginosa in PBS after 60 minutes exposure to biocide (Example 6). The data set is classed as cell-based. As to conditions: average of three. The protocol:
The efficacy of monochlorourea as a biocide, as synthesized in Example 1, was tested against the bacterium Pseudomonas aeruginosa. The Hach DPD chlorine test (Hach Company, Loveland, Colo.) was used to measure the total available chlorine concentrations of each biocide tested. Concentrations are reported in units of milligrams per liter as Cl2. P. aeruginosa was grown overnight in Trypticase Soy Broth at 37° C. The culture was split into aliquots of equal volume, suspended in physiologically buffered saline (PBS). In this example, the cultures were exposed to […], 5.0 mg/L, 10.0 mg/L, and 15.0 mg/L of biocide for 60 minutes. The cultures were then evaluated by measuring viable cell counts after exposure to the biocides.

For data set [6], the system named is P. aeruginosa. The experiment in a line: Viability of P. aeruginosa inoculated in paper mill process water, plated after 60 minutes. Type of data set: cell-based, Pseudomonas aeruginosa. Conditions: papermill process water, average of three. How it is done: Paper mill process water samples were collected from a paper mill producing super calendered paper Samples were inoculated with P. aeruginosa, and then dosed with monochlorourea and sodium hypochlorite and plated after 60 minutes.

Data set [7] in a line: Free vs. total chlorine (Hach DPD) of 1000 ppm solutions in synthetic hard water. Conditions: synthetic hard water 250 ppm hardness, 35° C. The data set is classed as physicochemical. How it is done: Differences exist between monochlorourea and sodium hypochlorite, namely, sodium hypochlorite is a free chlorine generating biocide while monochlorourea is not. Free and total chlorine are measured using the DPD reagents from the Hach Company. The test is a colorimetric test in which more intense color development results as more oxidizing chlorine is present in the sample. The rate at which the dye reacts with the oxidizing chemical depends on whether the chlorine is free or bound. Total chlorine includes both free and bound chlorine.
The rate at which the dye reacts with total chlorine is accelerated by the addition of iodide to the test. This differentiates the free and total chlorine. The iodide reacts rapidly with bound oxidizing chlorine to form iodine and chloride. The iodine, a free oxidizing halogen, reacts very rapidly with the DPD dye.
One thousand ppm (as total Cl2) solutions of monochlorourea and sodium hypochlorite were prepared in synthetic hard water with 250 ppm hardness. Total and free chlorine readings were taken at 0 minutes, 30 minutes, 2 hours, and 4 hours. Untreated hard water solutions were used as blanks. The samples were stored at 35° C.+/−2° C. with mild stirring. pH values are provided as a reference points for the conditions of the chlorine species at the various test times.
Table 3 compares duplicate samples of sodium hypochlorite and monochlorourea. Significant differences exist between the free and total chlorine values of these chemicals. The release of free chlorine from monochlorourea is an energetically unfavorable reaction. Monochlorourea is a combined chlorine species that functions to kill bacteria not as a donor of free chlorine, but as a biocide itself.
Made-up 1 Liter sample of synthetic hard water with 250 ppm hardness.
Took 100 mL aliquots and set up duplicate samples of biocides at least 1,000 ppm based on total Chlorine readings.
Monitored pH, free chlorine and total chlorines at timed intervals of—0 min, 30 min, 2 hours, and 4 hours,
Monitored un-treated (blank) hard water at time 0 to serve as baseline.
Between sampling stored all samples in 35° C.+/−2° C. Heater/shaker with mild stirring.

Data set [8] is described as follows: Effect of pH on stability of monochlorourea in D2O by 13C NMR. Type of data set: physicochemical. The text has this: The effect of pH on the stability of monochlorourea was significant. Carbon 13 labeled urea was used to examine the stability of the products overnight in D2O. […] However, completely acidifying all the solutions to a pH of 2.5 did have a significant effect on both the yield and the stability of the product.

Where [9] appears, read: Time = 2 hours, listed as MCU-1.
[10] abbreviates: Time = 2 hours, listed as MCU-2.
The mark [11] stands for this setting: Time = 4 hours, listed as MCU-1.
The mark [12] stands for this setting: Time = 4 hours, listed as MCU-2.

The text below walks through data of patent US8420012B2, “Use of monochlorourea to treat industrial waters” (Hercules Incorporated, priority 2009, dated 2013).

Regarding `O=C(NCO)N(Cl)CO` [BHMCU, N-chloro-N,N′-bishydroxymethylurea], the “Log Reduction” value in data set [1] (1 hr exposure) is listed as 6.37; in data set [1] (2 hr exposure) it was 6.52; in data set [2] (1 hr exposure), 3.63; in data set [2] (2 hr exposure) it was 6.98. The “Stability: total chlorine remaining relative to initial” value is listed as 100% in data set [3] (0 h); 70% in data set [3] (1 h); 49% in data set [3] (3 h); 38% in data set [3] (6 h); 3% in data set [4].

As for `NC(=O)NCl` [MCU, N-chlorourea], the “log10 of viable cfu/mL remaining after exposure” value in data set [5] (5.0 mg/L as Cl2, 60 minutes) was determined as 4.0 log10 cfu/mL; in data set [5] (10.0 mg/L as Cl2, 60 minutes), 2.7 log10 cfu/mL; in data set [5] (15.0 mg/L as Cl2, 60 minutes), 2.3 log10 cfu/mL. In addition, the “log10 of viable cfu/mL” value is on record as 9.9 log10 cfu/mL in data set [6] (1.0 mg/l), 4.3 log10 cfu/mL in data set [6] (3.0 mg/l), 3.2 log10 cfu/mL in data set [6] (5.0 mg/l) and 3.1 log10 cfu/mL in data set [6] (10.0 mg/l). The “Free Cl” value in data set [7] (Time = 0) turned out to be 0 ppm; in data set [7] (Time = 30 min, listed as MCU-1), 10 ppm; in data set [7] (Time = 30 min, listed as MCU-2), 20 ppm; in data set [7] (setting [9]), 10 ppm; in data set [7] (setting [10]) it was 30 ppm; in data set [7] (setting [11]), 10 ppm. Besides, the “Free Cl” value in data set [7] (setting [12]) is on record as 20 ppm. Further, the “Tot Cl” value in data set [7] (Time = 0, listed as MCU-1) is listed as 1620 ppm; in data set [7] (Time = 0, listed as MCU-2), 1190 ppm; in data set [7] (Time = 30 min, listed as MCU-1), 1500 ppm; in data set [7] (Time = 30 min, listed as MCU-2), 1210 ppm; in data set [7] (setting [9]), 1490 ppm; in data set [7] (setting [10]), 1120 ppm. Moreover, the “Tot Cl” value in data set [7] (setting [11]) is reported as 1230 ppm; in data set [7] (setting [12]), 1000 ppm. Moreover, the “Stability by 13C NMR” value in data set [8] (acidic conditions (pH of 2.5), overnight) was “no indication by ^13C NMR of any decomposition”; in data set [8] (basic conditions, 12 hours), “no peak in the ^13C NMR from chlorourea could be detected”.
